Consider 23 compounds from patent US9969709B2, “Guanidinobenzoic acid ester compound” (Takeda Pharmaceutical Company Limited, priority 2013, dated 2018).

Experiment [1] concerns T1, mouse trypsin (m-trypsin).
T1 construct: mouse trypsin (m-trypsin)
The experiment can be described thus: Trypsin inhibitory activity, mouse trypsin purified from small intestine contents, BZiPAR fluorescent substrate. The experiment is classed as biochemical. The note with it: 30 min at room temperature. An excerpt: 1. Confirmation of Trypsin Inhibitory Activity in Humans and Mice
In the experiment, human recombinant trypsin (rh-trypsin; manufactured by Wako Pure Chemical Industries, Ltd.), cat. #206-17171) and mouse trypsin (m-trypsin; purified from the mouse small intestine contents by the present inventors) were used. The method for purifying m-trypsin from the contents of the mouse small intestine is shown below.
The small intestine contents and the gastrointestinal tract obtained from 10 mice were homogenized in phosphate buffer saline (PBS) using Polytron, and subjected to centrifugation several times at 15,000×g for 10 minutes. The supernatant was mixed at 4° C. for 16 hours with a Benzamidine Sepharose 4 Fast Flow Resin (GE Healthcare: #17-5123-10). After washing the resin with PBS, m-trypsin was eluted with a glycine buffer (pH 3.0) to carry out purification. It was confirmed by Western blot analysis that the obtained purified fraction was recognized as an Anti-mouse Trypsin Antibody (Santa Cruz Biotechnology, Inc.: sc-67388). The method for measuring the trypsin inhibiting activity is shown below.
(§1) The compound was dissolved in dimethyl sulfoxide (DMSO), and diluted to an arbitrary concentration (A). A was 100-fold diluted with a buffer (0.1 M Tris (pH 8.0), 0.15 M NaCl, 10 mM CaCl2, 0.05% Brij35) (B). The rh-trypsin was diluted with a buffer to 0.088 μg/mL, and for the m-trypsin, the purified fraction liquid was 50-fold diluted with the buffer (C). […] A BZiPAR solution (Rhodamine Reference Substrate) which is substrate for the trypsin enzyme was diluted with the buffer to […] (D). 5 μL of B, 5 μL of C, and 10 μL of D were added to a 384-well plate, and incubated at room temperature for 30 minutes. Fluorescent signals were detected at a maximum excitement (Ex)/fluorescent wavelength (Em)=497 nm/520 nm using a Tecan Safire Fluorometer. […] Based on the obtained inhibitory rates, the trypsin inhibitory activities (IC50 values, nM) were calculated from the non-linear regression.

For a further experiment, the system named is ICR mice. Put plainly: Test of increase in fecal protein concentration using mice. The experiment is classed as in vivo, mouse. The note with it: 5 mg/kg oral, male ICR mice, feces collected 3 to 9 hours after feeding started, control group = 1; for response vs control in vivo at 5 mg/kg: Mus musculus, po, 9 h, read-out: Fecal protein, Folds (vs. control). As to the method: 2. Test of Increase in Fecal Protein Concentration Using Mice
For the experiment, 6-week old male ICR mice were used. The experiment was carried out in five mice per group. After fasting the mice for 15 hours, the control group was forcibly orally administered with a 0.5% methyl cellulose (MC) solution, and the test drug group was forcibly orally administered (5 mg/kg) with a solution or suspension obtained by dissolving or suspending the compound in the 0.5% MC solution. The fasting was stopped immediately thereafter, free feeding (CE-2) was started, and then the feces were collected from after 3 hours to after 9 hours, and weighed. All of the obtained feces were suspended in 6 mL of distilled water, and centrifuged at 1,940×g for 10 minutes. The protein concentration in the obtained supernatant was measured by a Bradford method, and the amount of the protein in 1 g of feces was calculated by dividing the protein concentration in the feces by the total weight of feces. Further, the efficacy was investigated from the ratio to the control group. For the compounds that were evaluated multiple times, the average values were calculated.
The results of the activities with an increase in Fecal Protein, assuming a value for the control group as 1, are shown in Table 2.

Experiment [2] has as its target T2, human recombinant trypsin (rh-trypsin) (Homo sapiens, UniProt P07477).
T2 construct: purchased Wako Pure Chemical Industries, Ltd. 206-17171
The experiment can be described thus: Trypsin inhibitory activity, human recombinant trypsin, BZiPAR fluorescent substrate. The experiment is classed as biochemical. The settings on record: 30 min at room temperature, read-out: r-h Trypsin inhibitory activity (IC50). As to the method: as §1, with “1. Confirmation of Trypsin Inhibitory Activity in Humans and Mice In the experiment, human recombinant trypsin (rh-trypsin; manufactured by Wako Pure Chemical Industries, Ltd.), cat. #206-17171) and mouse trypsin (m-trypsin; purified from the mouse small intestine contents by the present inventors) were used. The method for purifying m-trypsin from the contents of the mouse small intestine is shown below. The compound” for “The compound”

Each structure is given as a SMILES string. pIC50: −log10 of the molar value. Counter-ions that a name gives are not always drawn.

For the compound `N=C(N)Nc1ccc(C(=O)Oc2ccc3c(C(=O)N(CC(=O)O)Cc4cccc(CC(=O)O)c4)cccc3c2)cc1` [Example 42], the pIC50 (in general, −log10 of the IC50, conventionally taken in molar units) in experiment [1] was 9.85; in experiment [2] it was 9.70. In addition, the response vs control in vivo at 5 mg/kg in the experiment with ICR mice turned out to be 204%.

Turning to `N=C(N)Nc1ccc(C(=O)Oc2ccc3c(c2)CCCC3CC(=O)N(CCC(=O)O)Cc2csc(C(=O)O)c2)cc1` (stereo not drawn) [Example 55], the pIC50 in experiment [1] was 9.33; in experiment [2], 9.46. Besides, the response vs control in vivo at 5 mg/kg in the experiment with ICR mice is 230%.

With `N=C(N)Nc1ccc(C(=O)Oc2ccc3c(c2)CCC(C(=O)N(CC(=O)O)Cc2cccc(C(=O)O)c2)C3)cc1` (stereo not drawn) [Example 58], the pIC50 is 9.13 in experiment [1] and 9.17 in experiment [2]. For the same compound, in the experiment with ICR mice, the response vs control in vivo at 5 mg/kg was determined as 218%.

`N=C(N)Nc1ccc(C(=O)Oc2ccc3cc(C(=O)N(CC(=O)O)Cc4ccc5sc(C(=O)O)cc5c4)ccc3c2)cc1` [Example 33]: the figures for the negative-log IC50 (pIC50) in experiment [1] and in experiment [2] were 9.80 and 9.74, respectively. In the experiment on ICR mice, the response vs control in vivo at 5 mg/kg stood at 139%.

Regarding `Cl.N=C(N)Nc1ccc(C(=O)Oc2ccc3c(c2)CCCC3CC(=O)N(CC(=O)O)Cc2cccc(C(=O)O)c2)cc1` (single isomer, unassigned) [Example 6, 3-{[({(1R)-6-[(4-carbamimidamidobenzoyl)oxy]-1,2,3,4-tetrahydronaphthalen-1-yl}acetyl)(carboxymethyl)amino]methyl}benzoic acid or an enantiomer thereof], the figures for the pIC50 in experiment [1] and in experiment [2] were 9.70 and 9.54, respectively. In addition, the “Fecal protein, Folds (vs. control)” value in the experiment on ICR mice was found to be 1.84.

As for `N=C(N)Nc1ccc(C(=O)Oc2ccc3c(c2)CCC(C(=O)N(CC(=O)O)Cc2ccc4sc(C(=O)O)cc4c2)C3)cc1` (stereo not drawn) [Example 24], the negative-log IC50 (pIC50) in experiment [1] is 9.62; in experiment [2], 9.64. The response vs control in vivo at 5 mg/kg in the experiment on ICR mice amounted to 151%.

On to `N=C(N)Nc1ccc(C(=O)Oc2ccc3c(C(=O)N(CC(=O)O)Cc4ccc5sc(C(=O)O)cc5c4)csc3c2)cc1` [Example 32], for which the negative logarithm of the IC50 (pIC50) is 9.85 in experiment [1] and 9.82 in experiment [2]. The response vs control in vivo at 5 mg/kg in the experiment on ICR mice was determined as 190%.

In the case of `N=C(N)Nc1ccc(C(=O)Oc2ccc3c(c2)CCCC3CC(=O)N(CC(=O)O)[C@@H](Cc2ccccc2)C(=O)O)cc1` (stereo partly drawn) [Example 22], the pIC50 in experiment [1] is 9.36; in experiment [2] it was 9.47. Moreover, the response vs control in vivo at 5 mg/kg in the experiment on ICR mice amounted to 215%.

As to `N=C(N)Nc1ccc(C(=O)Oc2ccc3c(c2)CCC3CC(=O)N(CC(=O)O)Cc2cccc(C(=O)O)c2)cc1` (stereo not drawn) [Example 11], the values for the negative logarithm of the IC50 (pIC50) in experiment [1] and in experiment [2] were 9.17 and 9.51, respectively. Also, the response vs control in vivo at 5 mg/kg in the experiment on ICR mice turned out to be 263%.

In the case of `N=C(N)Nc1ccc(C(=O)Oc2ccc3c(C(=O)N(CC(=O)O)Cc4ccc5sc(C(=O)O)cc5c4)cccc3c2)cc1` [Example 34], the results for the pIC50 in experiment [1] and in experiment [2] were 9.77 and 9.68, respectively. Also, the response vs control in vivo at 5 mg/kg in the experiment on ICR mice came out at 207%.

For the compound `N=C(N)Nc1ccc(C(=O)Oc2ccc3c(c2)CCCC3CC(=O)N(CC(=O)O)Cc2ccc(CC(=O)O)cc2)cc1` (stereo not drawn) [Example 26], the negative-log IC50 (pIC50) in experiment [1] was 9.47; in experiment [2], 9.48. The response vs control in vivo at 5 mg/kg in the experiment on ICR mice is 170%.

In the case of `C[C@H](C(=O)O)N(Cc1csc(C(=O)O)c1)C(=O)CC1CCCc2cc(OC(=O)c3ccc(NC(=N)N)cc3)ccc21` (single isomer, unassigned) [Example 7, 4-({({(1R)-6-[(4-carbamimidamidobenzoyl)oxy]-1,2,3,4-tetrahydronaphthalen-1-yl}acetyl) [(1R)-1-carboxyethyl]amino}methyl)thiophene-2-carboxylic acid or an epimer at position 1 of the 1,2,3,4-tetrahydronaphthalene], the values for the negative-log IC50 (pIC50) in experiment [1] and in experiment [2] were 9.59 and 9.52, respectively. Further, the response vs control in vivo at 5 mg/kg with ICR mice amounted to 183%.

Turning to `N=C(N)Nc1ccc(C(=O)Oc2ccc3c(c2)CCCC3CC(=O)N(CC(=O)O)Cc2ccc3sc(C(=O)O)cc3c2)cc1` (stereo not drawn) [Example 25], the pIC50 was 9.46 in experiment [1] and 9.55 in experiment [2]. Besides, the response vs control in vivo at 5 mg/kg in the experiment on ICR mice stood at 135%.

For the compound `N=C(N)Nc1ccc(C(=O)Oc2ccc3c(c2)CCC(C(=O)N[C@@H](Cc2ccc(C(=O)O)cc2)C(=O)O)C3)cc1` (stereo partly drawn) [Example 35], the negative logarithm of the IC50 (pIC50) was 9.38 in experiment [1] and 9.43 in experiment [2]. For the same compound, the response vs control in vivo at 5 mg/kg in the experiment on ICR mice was determined as 159%.

Regarding `N=C(N)Nc1ccc(C(=O)Oc2ccc3c(c2)CCC3CC(=O)N(CC(=O)O)Cc2ccc3sc(C(=O)O)cc3c2)cc1` (stereo not drawn) [Example 51], the pIC50 in experiment [1] was 9.42; in experiment [2], 9.47. For the same compound, the response vs control in vivo at 5 mg/kg with ICR mice worked out at 166%.

With `N=C(N)Nc1ccc(C(=O)Oc2ccc3c(c2)CCCC3CC(=O)N(CCc2ccc(C(=O)O)cc2)CC(=O)O)cc1` (stereo not drawn) [Example 28], the pIC50 is 9.40 in experiment [1] and 9.42 in experiment [2]. In addition, the response vs control in vivo at 5 mg/kg in the experiment with ICR mice stood at 154%.

Consider `N=C(N)Nc1ccc(C(=O)Oc2ccc3c(C(=O)N(CC(=O)O)Cc4csc(C(=O)O)c4)csc3c2)cc1` [Example 13], for which the pIC50 in experiment [1] is 9.44; in experiment [2], 9.60. For the same compound, in the experiment on ICR mice, the response vs control in vivo at 5 mg/kg came to 273%.

As to `N=C(N)Nc1ccc(C(=O)Oc2ccc3c(C(=O)N[C@@H](Cc4ccc(C(=O)O)cc4)C(=O)O)cccc3c2)cc1` [Example 3, N-{6-[(4-carbamimidamidobenzoyl)oxy]-1-naphthoyl}-4-carboxy-L-phenylalanine monohydrochloride], the figures for the negative logarithm of the IC50 (pIC50) in experiment [1] and in experiment [2] were 9.66 and 9.68, respectively. In the experiment on ICR mice, the response vs control in vivo at 5 mg/kg came to 209%.

In the case of `N=C(N)Nc1ccc(C(=O)Oc2ccc3c(C(=O)N(CCC(=O)O)Cc4csc(C(=O)O)c4)csc3c2)cc1` [Example 54], the figures for the negative-log IC50 (pIC50) in experiment [1] and in experiment [2] were 9.34 and 9.54, respectively. Moreover, the response vs control in vivo at 5 mg/kg in the experiment with ICR mice stood at 170%.

As to `N=C(N)Nc1ccc(C(=O)Oc2ccc3c(c2)CCCC3CC(=O)N2Cc3cc(C(=O)O)ccc3C[C@@H]2C(=O)O)cc1` (stereo partly drawn) [Example 30], the values for the pIC50 in experiment [1] and in experiment [2] were 9.55 and 9.60, respectively. Further, the response vs control in vivo at 5 mg/kg with ICR mice worked out at 168%.

Turning to `N=C(N)Nc1ccc(C(=O)Oc2ccc3c(c2)CCCC3CC(=O)N(CC(=O)O)Cc2cccc(CC(=O)O)c2)cc1` (stereo not drawn) [Example 41], the pIC50 was 9.66 in experiment [1] and 9.59 in experiment [2]. In addition, the response vs control in vivo at 5 mg/kg in the experiment on ICR mice is 201%.

`C[C@H](C(=O)O)N(Cc1csc(C(=O)O)c1)C(=O)C1CCc2cc(OC(=O)c3ccc(NC(=N)N)cc3)ccc2C1` (stereo partly drawn) [Example 21]: the pIC50 in experiment [1] was 9.28; in experiment [2], 9.42. For the same compound, the response vs control in vivo at 5 mg/kg in the experiment with ICR mice was found to be 251%.

Regarding `N=C(N)Nc1ccc(C(=O)Oc2ccc3c(C(=O)N(CC(=O)O)Cc4ccc(CC(=O)O)cc4)csc3c2)cc1` [Example 23], the pIC50 in experiment [1] and in experiment [2] was 9.34 throughout. Besides, in the experiment with ICR mice, the response vs control in vivo at 5 mg/kg amounted to 253%.
